The values that follow come from publication PMC2106221 (The Journal of Cell Biology, 1963).

The test system of data set [1] is trypsin-like amidase and esterase activity in human mast cells (mast cell enzyme(s)). In kind it is biochemical. To be noted: for time to observable mast cells at theoretical Vm: from the Lineweaver-Burk plot; for time for the demonstration of mast cells: optimal substrate concentration; for time required for the appearance of visible mast cells, mean: double-blind.

The target of data set [2] is T1, bovine trypsin (crystalline) (Bos taurus, UniProt P00760).
T1 sequence (P00760 24-246): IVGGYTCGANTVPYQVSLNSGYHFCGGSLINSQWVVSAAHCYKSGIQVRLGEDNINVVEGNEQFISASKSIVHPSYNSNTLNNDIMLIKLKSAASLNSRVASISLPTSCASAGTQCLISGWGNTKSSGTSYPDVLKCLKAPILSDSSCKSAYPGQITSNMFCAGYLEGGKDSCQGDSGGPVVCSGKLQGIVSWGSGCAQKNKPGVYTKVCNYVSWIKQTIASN
The format is biochemical. To be noted: for Percentage inhibition 5 min.: DL-BANA 0.60 mM, enzyme 10 μg/ml.

Data set [3] is described as follows: diazonium coupling velocity in test tube, spectrophotometric half-reaction times. The format is physicochemical.
Another data set deals with canine mast cells. As to the kind of experiment: histochemical reaction in canine skin sections. To be noted: incubation period of 1 hour. In kind it is biochemical, dog.
Data set [4] is described as follows: spontaneous hydrolysis of ester substrate in water/buffer. In kind it is physicochemical.
A further data set deals with chymotrypsin. Conditions: pH 7.2 ref 2; cited from earlier work.
Data set [5] addresses T1, bovine trypsin (crystalline). Conditions: trypsin 4 X pancreatin (Nutritional Biochemical Corporation) ref 1; cited from earlier work.
The mark [6] stands for this setting: Lineweaver-Burk plot, human mast cells.

Like-named read-outs stand apart in the source and are kept apart here.

With `Cl.N=C(N)NCCC[C@@H](NC(=O)c1ccccc1)C(=O)Nc1ccc2ccccc2c1` [D-BANA, benzoyl-D-arginine β-naphthylamide hydrochloride], the “nature of inhibition of DL-BANA hydrolysis” value in data set [1] (setting [6]) is given as “competitive inhibitor”. Besides, the “hydrolysis in the mast cells” value in data set [1] (tested as substrate) is given as “not hydrolyzed”. In data set [2], the “nature of inhibition of tryptic hydrolysis of L-BANA” value is on record as “competitive inhibitor” and the substrate for trypsin result is given as “not a substrate for trypsin”.

Turning to `Nc1ccc2ccccc2c1` [β-naphthylamine], the “Half-reaction time of coupling with Garnet GBC” value in data set [3] (Garnet GBC 0.70 mg/ml, presence of Tween 20) was found to be 7 s; in data set [3] (Garnet GBC 0.70 mg/ml, presence of albumin), 48 s; in data set [3] (Garnet GBC 0.70 mg/ml, water, pH 7.2), 93 s; in data set [3] (Garnet GBC 1.40 mg/ml, presence of Tween 20), 4 s; in data set [3] (Garnet GBC 1.40 mg/ml, presence of albumin) it was 23 s; in data set [3] (Garnet GBC 1.40 mg/ml, water, pH 7.2) it was 42 s.

Regarding `Cl.NCCCCC(NC(=O)c1ccccc1)C(=O)Nc1ccc2ccccc2c1` (racemic) [DL-BLyNA, benzoyl-DL-lysine β-naphthylamide hydrochloride], the “reaction in canine mast cells” value in the data set on canine mast cells is “No reaction”. Besides, the “time to observable mast cells at theoretical Vm” value in data set [1] came to 2 min. Besides, in data set [1] (human mast cells), the “time for the demonstration of mast cells” value lay within 5 to 6 min.

Consider `NCCCCCC(=O)Oc1cc2ccccc2cc1C(=O)Nc1ccccc1` [EACA-AS, Naphthol AS ε-aminocaproate], for which the “substrate concentration at approximately half-maximal velocity” value in data set [1] (human mast cells, Fig. 7) is ~7 #M. In data set [2] (trypsin, velocity calculated from the Lineweaver-Burk plot), the “substrate concentration at approximately 50 per cent of the reaction velocity” value is reported as ~20 /ZM. Moreover, in data set [4] (pH 5-6), the “spontaneous hydrolysis in water” value was “insignificant”. For the same compound, the “mean substrate concentration during spontaneous hydrolysis” value in data set [4] (pH 7.2, during 20 minutes) was 92 per cent of the original concentration; in data set [4] (pH 7.2, during 30 minutes), 90 per cent of the original concentration; in data set [4] (pH 7.2, during the first 10 minutes), 95 per cent of the original concentration. Further, the “hydrolysis by chymotrypsin relative to that of trypsin” value in the data set on chymotrypsin is given as “about 10 per cent”.

Consider `Cc1ccccc1N=Nc1ccc([N+]#N)c(C)c1` [Garnet GBC], for which the “inhibition of DL-BANA hydrolysis” value in data set [5] is “Up to 75 per cent”. The “Percentage inhibition 5 min.” value in data set [2] (Garnet GBC 0.05 mg/ml) is recorded as 4.7%; in data set [2] (Garnet GBC 0.10 mg/ml) it was 13.2%; in data set [2] (Garnet GBC 0.20 mg/ml), 16.5%; in data set [2] (Garnet GBC 0.40 mg/ml) it was 20.1%; in data set [2] (Garnet GBC 2.00 mg/ml) it was 35.0%. Also, in data set [2] (Lineweaver-Burk plot), the “nature of inhibition of tryptic DL-BANA hydrolysis” value is recorded as “uncompetitive inhibition”. The “inhibition of Vm of DL-BANA hydrolysis by the diazonium salt” value in data set [2] (from Lineweaver-Burk plot, Fig. 6) is “about 40 per cent”. The “change of hydrolysis rate after preincubation with diazonium salt” value in data set [2] (preincubation of 60 minutes prior to the addition of substrate) was “no more than 15 per cent”.

As for `NC(=O)[C@H](CCCN=C(N)N)NC(=O)c1ccccc1` [BAA, benzoyl-L-arginine amide, reference compound], in data set [1] (setting [6]), the “nature of inhibition of DL-BANA hydrolysis” value is “competitive”. Besides, the “nature of inhibition of DL-BLyNA hydrolysis” value in data set [1] (human mast cells) is on record as “competitive”.

In the case of `Cc1ccccc1NC(=O)c1cc2ccccc2cc1OC(=O)CCCCCN` [EACA-AS-D, Naphthol AS-D ε-aminocaproate], the “results as substrate compared with EACA-AS” value in data set [1] (both biochemical and histochemical studies) is reported as “essentially the same results as EACA-AS”.

For the compound `Cl.N=C(N)NCCCC(NC(=O)c1ccccc1)C(=O)Nc1ccc2ccccc2c1` (racemic) [DL-BANA, benzoyl-DL-arginine β-naphthylamide hydrochloride], the “time required for the appearance of visible mast cells, mean” value is 7.0 min in data set [1] (Experiment 1, DL-BANA 0.12 mM) and 15.9 min in data set [1] (Experiment 2, DL-BANA 0.050 mM). Moreover, the “time to observable mast cells at theoretical Vm” value in data set [1] is 2 min. The “time for the demonstration of mast cells” value in data set [1] (human mast cells) was in the range of 5 to 6 min. For the same compound, the Vm in data set [2] (in the absence of Garnet GBC) is 50 mμM β-naphthylamine liberated; in data set [2] (in the presence of Garnet GBC), 30 mμM β-naphthylamine liberated.

As to `COC(=O)[C@H](CCCNC(=N)N)NC(=O)c1ccccc1` [BAME, benzoyl-L-arginine methyl ester, reference compound], in data set [1] (setting [6]), the “nature of inhibition of DL-BANA hydrolysis” value is “competitive” and the “nature of inhibition of EACA-AS hydrolysis” value is listed as “competitive inhibitor”.
